The values below come from patent US20230265116A1, “DEGRADATION OF (EGFR) BY CONJUGATION OF EGFR INHIBITORS WITH E3 LIGASE LIGAND AND METHODS OF USE” (BEIGENE, LTD., priority 2020, published 2023).

Assay type in all cases: cell-based
Experiment [1] deals with T1, EGFR L858R/T790M/C797S (BaF3-LTC cells) (Homo sapiens, UniProt P00533, C797S/L858R/T790M).
T1 construct: expressed in transfected cells; host or cells: BaF3
Nature of the experiment: EGFR degradation HTRF assay, BaF3-LTC cells. The conditions noted are these: BaF3-LTC cells; for DC50: EGFR degradation, IC50 (DC50) from curve fit, read-out: DC50(nM) BaF3-LTC. The procedure, abridged: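 Cells treated 16 h at 37 °C, 5% CO2 in medium with 0.2% DMSO; top final concentration 10 uM, 5-fold dilution, 8 doses. Lysates read by HTRF (665/620 nm); degradation % versus DMSO high control, DC50 from four-parameter fit, Dmax as maximal degradation.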

In experiment [2] the test system is EGFR Del19/C797S (H1975-clone #23). Nature of the experiment: EGFR degradation HTRF assay, H1975-clone #23 DC cells. Conditions: 16h treatment; for H1975 #23 DC Dmax (%): maximum percentage of degradation; for DC50: H1975 #23 DC, read-out: H1975 #23 DC DC50. An outline of the steps:
(§1)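 H1975 clones stably overexpressing mutant EGFR, with endogenous EGFR knocked out by sgRNA and homozygosity confirmed by sequencing, were treated 16h at 37° C. with compounds in 0.2% DMSO (top final 10 uM, 5-fold, 8 doses). Lysates were read by HTRF (665/620 nm); DC50 and Dmax came from fitting % degradation versus DMSO control.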
A general note: In TR-FRET formats the signal depends on donor and acceptor labels being close together.

Experiment [3] concerns the target T2, EGFR L858R/C797S (BaF3 LC cells) (Homo sapiens, UniProt P00533, C797S/L858R).
T2 construct: expressed in transfected cells; host or cells: BaF3
Briefly: EGFR degradation HTRF assay, BaF3 LC cells. The conditions noted are these: BaF3 LC, 16h treatment; for DC50: read-out: BaF3 LC DC50.

In experiment [4] the test system is EGFR Del19/T790M/C797S (H1975-clone #28). Nature of the experiment: EGFR degradation HTRF assay, H1975-clone #28 DTC cells. Conditions: H1975 # 28 DTC cells; for DC50: EGFR degradation, IC50 (DC50) from curve fit, read-out: DC50(nM) H1975 # 28 DTC; for Dmax (%) H1975 # 28 DTC: maximum percentage of inhibition (degradation). The procedure, abridged:
as §1

One may read the DC50 as the concentration at which degradation of the target reaches its halfway point. The term Dmax denotes the greatest extent of degradation seen.

T2 sequence (P00533 25-1210 C797S/L858R): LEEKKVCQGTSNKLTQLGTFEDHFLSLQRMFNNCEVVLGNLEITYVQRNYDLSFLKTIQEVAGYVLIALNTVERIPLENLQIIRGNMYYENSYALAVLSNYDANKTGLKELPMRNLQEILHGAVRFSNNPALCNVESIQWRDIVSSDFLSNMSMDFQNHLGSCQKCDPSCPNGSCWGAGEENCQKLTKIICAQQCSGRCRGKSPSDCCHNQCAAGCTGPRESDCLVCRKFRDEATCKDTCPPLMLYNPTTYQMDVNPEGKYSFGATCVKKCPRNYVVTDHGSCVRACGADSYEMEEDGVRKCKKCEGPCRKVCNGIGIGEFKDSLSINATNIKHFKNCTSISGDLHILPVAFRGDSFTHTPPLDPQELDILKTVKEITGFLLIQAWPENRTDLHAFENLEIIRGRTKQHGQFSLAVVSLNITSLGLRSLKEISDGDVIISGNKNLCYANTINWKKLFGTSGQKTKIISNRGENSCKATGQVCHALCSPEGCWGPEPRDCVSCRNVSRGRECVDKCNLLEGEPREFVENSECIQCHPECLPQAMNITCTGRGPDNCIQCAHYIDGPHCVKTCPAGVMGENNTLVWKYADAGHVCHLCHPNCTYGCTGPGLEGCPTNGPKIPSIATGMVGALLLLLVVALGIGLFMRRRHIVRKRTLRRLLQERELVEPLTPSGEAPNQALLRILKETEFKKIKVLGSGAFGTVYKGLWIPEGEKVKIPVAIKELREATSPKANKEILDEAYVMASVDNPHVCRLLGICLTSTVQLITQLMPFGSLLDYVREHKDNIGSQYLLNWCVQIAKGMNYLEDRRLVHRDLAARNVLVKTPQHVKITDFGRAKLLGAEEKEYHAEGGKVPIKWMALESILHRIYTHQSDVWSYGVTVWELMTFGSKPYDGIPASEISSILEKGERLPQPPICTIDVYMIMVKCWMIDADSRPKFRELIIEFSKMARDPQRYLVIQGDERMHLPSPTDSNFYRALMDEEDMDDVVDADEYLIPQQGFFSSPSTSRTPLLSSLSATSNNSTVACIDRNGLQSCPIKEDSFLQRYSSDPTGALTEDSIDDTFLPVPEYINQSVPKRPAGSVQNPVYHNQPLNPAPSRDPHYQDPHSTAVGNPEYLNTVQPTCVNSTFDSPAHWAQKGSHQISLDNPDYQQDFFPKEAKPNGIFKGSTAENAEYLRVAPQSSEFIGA
T1 sequence (P00533 25-1210 T790M/C797S/L858R): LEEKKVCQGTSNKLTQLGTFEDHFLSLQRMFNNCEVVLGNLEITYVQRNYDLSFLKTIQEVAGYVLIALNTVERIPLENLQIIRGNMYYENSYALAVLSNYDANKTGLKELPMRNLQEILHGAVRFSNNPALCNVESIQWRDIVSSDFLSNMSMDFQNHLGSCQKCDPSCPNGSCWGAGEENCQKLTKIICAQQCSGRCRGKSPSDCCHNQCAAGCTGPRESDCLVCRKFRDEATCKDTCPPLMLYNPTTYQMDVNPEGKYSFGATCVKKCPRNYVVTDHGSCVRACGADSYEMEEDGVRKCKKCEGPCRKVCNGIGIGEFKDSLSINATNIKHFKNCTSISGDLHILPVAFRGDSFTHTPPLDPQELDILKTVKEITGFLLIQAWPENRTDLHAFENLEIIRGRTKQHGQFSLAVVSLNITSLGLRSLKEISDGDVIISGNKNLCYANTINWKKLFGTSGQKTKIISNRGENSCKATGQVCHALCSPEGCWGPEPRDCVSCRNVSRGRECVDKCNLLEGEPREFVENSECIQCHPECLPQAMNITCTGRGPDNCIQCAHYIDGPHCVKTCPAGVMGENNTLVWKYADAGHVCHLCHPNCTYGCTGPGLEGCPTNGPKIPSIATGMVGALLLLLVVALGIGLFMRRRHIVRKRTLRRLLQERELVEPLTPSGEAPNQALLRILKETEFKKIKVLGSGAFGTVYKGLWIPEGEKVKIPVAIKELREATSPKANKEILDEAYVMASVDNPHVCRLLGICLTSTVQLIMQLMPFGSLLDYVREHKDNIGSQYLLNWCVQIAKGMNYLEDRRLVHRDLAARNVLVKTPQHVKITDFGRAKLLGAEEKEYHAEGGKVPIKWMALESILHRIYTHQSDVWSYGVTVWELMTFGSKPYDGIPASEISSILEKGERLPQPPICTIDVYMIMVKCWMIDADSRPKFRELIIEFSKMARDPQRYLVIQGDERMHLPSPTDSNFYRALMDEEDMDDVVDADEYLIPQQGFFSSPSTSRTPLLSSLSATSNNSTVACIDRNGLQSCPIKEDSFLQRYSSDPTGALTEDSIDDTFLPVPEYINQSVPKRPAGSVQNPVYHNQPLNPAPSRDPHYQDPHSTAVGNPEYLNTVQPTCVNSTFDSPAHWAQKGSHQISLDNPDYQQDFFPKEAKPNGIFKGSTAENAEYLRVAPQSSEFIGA

Consider `CCc1cc(Nc2ncc(Br)c(Nc3ccc4nc(NC(=O)C5CC5)ccc4c3P(C)(C)=O)n2)c(OC)cc1N1CCC(N2CCN(C(=O)[C@@H]3CCN(c4cc(F)c([C@H]5CCC(=O)NC5=O)c(F)c4)C3)CC2)CC1` [Example 587, N-(6-((5-bromo-2-((4-(4-(4-((R)-1-(4-((R)-2,6-dioxopiperidin-3-yl)-3,5-difluorophenyl)pyrrolidine-3-carbonyl)piperazin-1-yl)piperidin-1-yl)-5-ethyl-2-methoxyphenyl)amino)pyrimidin-4-yl)amino)-5-(dimethylphosphoryl)quinolin-2-yl)cyclopropanecarboxamide], for which the DC50 in experiment [1] was 2.19 nM; in experiment [2], 6.14 nM; in experiment [3] it was 14.6 nM; in experiment [4], 0.765 nM. Also, the Dmax in experiment [1] (maximum percentage of inhibition (degradation), read-out: Dmax (%) BaF3-LTC) worked out at 89.2%; in experiment [3] (maximum percentage of degradation, read-out: BaF3 LC Dmax (%)), 87.8%. Besides, the “H1975 #23 DC Dmax (%)” value in experiment [2] is on record as 87.43%. For the same compound, the “Dmax (%) H1975 # 28 DTC” value in experiment [4] turned out to be 87.02%.

In the case of `CCc1ncc2c(P(C)(C)=O)c(Nc3nc(Nc4cc(CC)c(N5CCC(N6CCN(CCc7cc(F)c([C@H]8CCC(=O)NC8=O)c(F)c7)CC6)CC5)cc4OC)ncc3Br)ccc2n1` [Example 589, (R)-3-(4-(2-(4-(1-(4-((5-bromo-4-((5-(dimethylphosphoryl)-2-ethylquinazolin-6-yl)amino)pyrimidin-2-yl)amino)-2-ethyl-5-methoxyphenyl)piperidin-4-yl)piperazin-1-yl)ethyl)-2,6-difluorophenyl)piperidine-2,6-dione], the DC50 in experiment [1] was 4.34 nM; in experiment [2], 2.2 nM; in experiment [3], 20.3 nM; in experiment [4], 0.844 nM. For the same compound, in experiment [2], the “H1975 #23 DC Dmax (%)” value came to 84.51%. Moreover, the “Dmax (%) H1975 # 28 DTC” value in experiment [4] turned out to be 86.23%.

As to `CCOc1cc(N2CCC(N3CCN(CCc4cccc5c4n(CC)c(=O)n5C4CCC(=O)NC4=O)CC3)CC2)c(CC)cc1Nc1ncc(Br)c(Nc2cc(F)c3nc(CC)ccc3c2P(C)(C)=O)n1` (centres unmarked) [Example 643, 3-(4-(2-(4-(1-(4-((5-bromo-4-((5-(dimethylphosphoryl)-2-ethyl-8-fluoroquinolin-6-yl)amino)pyrimidin-2-yl)amino)-5-ethoxy-2-ethylphenyl)piperidin-4-yl)piperazin-1-yl)ethyl)-3-ethyl-2-oxo-2,3-dihydro-1H-benzo[d]imidazol-1-yl)piperidine-2,6-dione], the DC50 is 3.86 nM in experiment [1], 1.45 nM in experiment [2], 3.97 nM in experiment [3] and 2.48 nM in experiment [4]. Besides, the “H1975 #23 DC Dmax (%)” value in experiment [2] amounted to 73.67%. Moreover, in experiment [4], the “Dmax (%) H1975 # 28 DTC” value came to 65.15%.

As to `CCOc1cc(N2CCC(N3CCN(CCc4cccc5c4n(C)c(=O)n5C4CCC(=O)NC4=O)CC3)CC2)c(CC)cc1Nc1ncc(Br)c(Nc2ccc3nc(CC)ccc3c2P(C)(C)=O)n1` (centres unmarked) [Example 752, 3-(4-(2-(4-(1-(4-((5-bromo-4-((5-(dimethylphosphoryl)-2-ethylquinolin-6-yl)amino)pyrimidin-2-yl)amino)-5-ethoxy-2-ethylphenyl)piperidin-4-yl)piperazin-1-yl)ethyl)-3-methyl-2-oxo-2,3-dihydro-1H-benzo[d]imidazol-1-yl)piperidine-2,6-dione], the DC50 in experiment [1] stood at 6.34 nM; in experiment [2], 1.76 nM; in experiment [3] it was 2.23 nM; in experiment [4], 1 nM. Besides, in experiment [2], the “H1975 #23 DC Dmax (%)” value is reported as 78.99%. Besides, in experiment [4], the “Dmax (%) H1975 # 28 DTC” value is recorded as 77.12%.

For the compound `CCc1cc(Nc2ncc(Br)c(Nc3ccc4c(=O)n(CC)ncc4c3P(C)(C)=O)n2)c(OC)cc1N1CCC(N2CCN(CCc3cc(F)c([C@H]4CCC(=O)NC4=O)c(F)c3)CC2)CC1` [Example 753, (R)-3-(4-(2-(4-(1-(4-((5-bromo-4-((5-(dimethylphosphoryl)-2-ethyl-1-oxo-1,2-dihydrophthalazin-6-yl)amino)pyrimidin-2-yl)amino)-2-ethyl-5-methoxyphenyl)piperidin-4-yl)piperazin-1-yl)ethyl)-2,6-difluorophenyl)piperidine-2,6-dione], the DC50 in experiment [1] is 83.7 nM; in experiment [2] it was 2.43 nM; in experiment [3] it was 20.1 nM; in experiment [4], 6.28 nM. Moreover, in experiment [2], the “H1975 #23 DC Dmax (%)” value was 78.45%. For the same compound, in experiment [4], the “Dmax (%) H1975 # 28 DTC” value is reported as 87.49%.

Consider `CCc1ccc2c(P(C)(C)=O)c(Nc3nc(Nc4cc(CC)c(N5CCC(N6CCN(C(=O)[C@H]7CN(c8cc(F)c([C@H]9CCC(=O)NC9=O)c(F)c8)CC7(C)C)CC6)CC5)cc4OC)ncc3Br)ccc2n1` [Example 754, (R)-3-(4-((R)-4-(4-(1-(4-((5-bromo-4-((5-(dimethylphosphoryl)-2-ethylquinolin-6-yl)amino)pyrimidin-2-yl)amino)-2-ethyl-5-methoxyphenyl)piperidin-4-yl)piperazine-1-carbonyl)-3,3-dimethylpyrrolidin-1-yl)-2,6-difluorophenyl)piperidine-2,6-dione], for which the DC50 came out at 13.4 nM in experiment [1], 5.6 nM in experiment [2], 36.1 nM in experiment [3] and 3.22 nM in experiment [4]. For the same compound, the “H1975 #23 DC Dmax (%)” value in experiment [2] was found to be 71.73%. Further, the “Dmax (%) H1975 # 28 DTC” value in experiment [4] worked out at 86.62%.

As for `CCc1ccc2c(P(C)(C)=O)c(Nc3nc(Nc4cc(CC)c(N5CCC(N6CCN(C(=O)C7CN(c8cc(F)c([C@H]9CCC(=O)NC9=O)c(F)c8)C7)CC6)CC5)cc4OC)ncc3Br)ccc2n1` [Example 755, (R)-3-(4-(3-(4-(1-(4-((5-bromo-4-((5-(dimethylphosphoryl)-2-ethylquinolin-6-yl)amino)pyrimidin-2-yl)amino)-2-ethyl-5-methoxyphenyl)piperidin-4-yl)piperazine-1-carbonyl)azetidin-1-yl)-2,6-difluorophenyl)piperidine-2,6-dione], the DC50 turned out to be 4.13 nM in experiment [1], 7.68 nM in experiment [2], 16.4 nM in experiment [3] and 0.57 nM in experiment [4]. In addition, the “H1975 #23 DC Dmax (%)” value in experiment [2] was 69.09%. For the same compound, in experiment [4], the “Dmax (%) H1975 # 28 DTC” value turned out to be 84.62%.

As to `CCc1cc(Nc2ncc(Br)c(Nc3ccc4c(=O)n(C)ncc4c3P(C)(C)=O)n2)c(OC)cc1N1CCC(N2CCN(CCc3cccc4c3C3(CC3)C(=O)N4C3CCC(=O)NC3=O)CC2)CC1` (centres unmarked) [Example 756, 3-(4′-(2-(4-(1-(4-((5-bromo-4-((5-(dimethylphosphoryl)-2-methyl-1-oxo-1,2-dihydrophthalazin-6-yl)amino)pyrimidin-2-yl)amino)-2-ethyl-5-methoxyphenyl)piperidin-4-yl)piperazin-1-yl)ethyl)-2′-oxospiro[cyclopropane-1,3′-indolin]-1′-yl)piperidine-2,6-dione], the 50% degradation concentration (DC50) in experiment [1] was 2.31 nM; in experiment [2] it was 1.69 nM; in experiment [3], 10.1 nM; in experiment [4], 0.608 nM. In addition, in experiment [2], the “H1975 #23 DC Dmax (%)” value amounted to 73.8%. The “Dmax (%) H1975 # 28 DTC” value in experiment [4] was 80.03%.
